Test results from patent US6235891A, “Glucocorticoid receptor agonist and decreased PP5” (South Alabama Medical Science Foundation, priority 1999, dated 2001).

System: glucocorticoid receptor (GR) binding to DNA
Test: Gel mobility shift assay of GR binding to GRE DNA, A549 nuclear extracts
Assay type: cell-based, human
Conditions: 300 nM ISIS 15534 compared with 1 μM dexamethasone
Procedure: Nuclear extracts and gel mobility shift assays were conducted as previously described (Li et al. 1991) with slight modifications (Zuo et al. 1998). Briefly, A549 cells were cultured in 60 mm dishes and treated with ISIS 15521 or ISIS 15534 antisense oligonucleotides (Zuo et al. 1998) three dishes per group. Six hours after treatment, the cells were collected, washed with ice-cold PBS, and incubated in buffer A (10 mM HEPES, pH 7.9, 10 mM KCl, 0.1 mM EDTA, 0.1 mM EGTA, 1 mM DTT, 0.5 mM PMSF) at 4° C. for 15 minutes. The cells were then lysed by adding 25 μl 10% NP-40 and vigorous vortexing for 10 seconds. Nuclei were precipitated by centrifugation, resuspended in ice-cold buffer B (20 mM HEPES, pH 7.9, 0.4 M NaCl, 1 mM EDTA, 1 mM EGTA, 1 mM DTT, 1 mM PMSF), incubated at 4° C. for 60 minutes with gentle shaking, and then subjected to centrifugation at 4° C. for 5 minutes. The supernatant was collected, aliquoted, and stored at -80° C. […]
Referring to FIG. 3A, the inhibition of PP5 expression enhances glucocorticoid receptor binding to DNA. […] The relative light units of the cell extract were calculated as an average of three independent experiments, performed in triplicate, and presented as relative luciferase activity with error bars indicating SD. […]

ISIS 15534: chimeric PP5 antisense oligonucleotide, P=O wings, P=S deoxy gap; GGGCCCTATTGCTTGAGTGG, SEQ ID NO: 12 (sugars by position and backbone not given here; chimeric, phosphodiester wings, phosphorothioate deoxy gap)
GR/GRE gel shift: more pronounced shift
